This passage reports logP results from ChEMBL document CHEMBL3808352, “Pyrazolylamine Derivatives Reveal the Conformational Switching between Type I and Type II Binding Modes of Anaplastic Lymphoma Kinase (ALK)” (J Med Chem, 2016).

Each structure is given as a SMILES string.

The data set is described as follows: Lipophilicity, log P of the compound. In kind it is physicochemical. The following applies: octanol/water.

What is called logP is the decadic logarithm of the partition coefficient of the neutral form, usually between octanol and water. The low end stands for a more hydrophilic compound, the high end for a more lipophilic compound.

In turn, `Cc1cc(-c2cc(NC(=O)c3ccc(CN4CCN(C)CC4)cc3)[nH]n2)ccc1NC(=O)Nc1cc(C(C)(C)C)on1` came in with a logP of 4.54.
The figure for `Cc1cc(-c2cc(NC(=O)c3ccc(CN4CCN(C)CC4)cc3)[nH]n2)ccc1N` is 2.61.
